Each structure is given as a SMILES string.

Consider `C[C@@H]1CN(c2nc3ccccc3s2)C[C@H](C)N1CCCCC1(C(=O)NCc2ccc(F)cc2)c2ccccc2-c2ccccc21` [Example 70, 9-[4-(4-benzothiazol-2-yl-cis-2,6-dimethyl-piperazin-1-yl)-butyl]-9H-fluorene-9-carboxylic acid-4-fluoro-benzylamide], for which the melting point was 171 °C.

The molecule `O=C(NCc1ccc(F)c(F)c1)C1(CCCCN2CCN(c3ccc4ccccc4n3)CC2)c2ccccc2-c2ccccc21` [Example 85, 9-[4-(4-quinolin-2-yl-piperazin-1-yl)-butyl]-9H-fluorene-9-carboxylic acid-3,4-difluoro-benzylamide] displayed a melting point of 141 to 143 °C.

On to `O=C(NCc1ccc(F)cc1F)C1(CCCCN2CCN(c3ccc4ccccc4n3)CC2)c2ccccc2-c2ccccc21` [Example 84, 9-[4-(4-quinolin-2-yl-piperazin-1-yl)-butyl]-9H-fluorene-9-carboxylic acid-2,4-difluoro-benzylamide], for which the melting point was 116 to 118 °C.

As for `O=C(NCc1ccncc1)C1(CCCCN2CCN(c3ccc4ccccc4n3)CC2)c2ccccc2-c2ccccc21` [Example 88, 9-[4-(4-quinolin-2-yl-piperazin-1-yl)-butyl]-9H-fluorene-9-carboxylic acid-(pyridin-4-ylmethyl)-amide], the melting point was in the range of 166 to 168 °C.

Molecule `O=C(NCc1ccc(F)cc1)C1(CCCCN2CCN(c3cnc4ccccc4n3)CC2)c2ccccc2-c2ccccc21` [Example 57, 9-[4-(4-quinoxalin-2-yl-piperazin-1-yl)-butyl]-9H-fluorene-9-carboxylic acid-4-fluoro-benzylamide] had a melting point of 160 °C.

Molecule `O=C(N1CCOCC1)C1(CCCCN2CCN(c3ccc4ccccc4n3)CC2)c2ccccc2Oc2ccccc21` [Example 120, 1-morpholin-4-yl-1-{9-[4-(4-quinolin-2-yl-piperazin-1-yl)-butyl]-9H-xanthene-9-yl}-methanone] had a melting point of 48 to 58 °C.

On to `O=C(NCc1ccc(F)cc1)C1(CCCCN2CCN(c3ncc4ccccc4n3)CC2)c2ccccc2-c2ccccc21` [Example 58, 9-[4-(4-quinazolin-2-yl-piperazin-1-yl)-butyl]-9H-fluorene-9-carboxylic acid-4-fluoro-benzylamide], for which the melting point amounted to 160 °C.
